Experimental findings from US12239132B2, “Compounds and methods for increasing soil nutrient availability” (SOUND AGRICULTURE COMPANY, priority 2018, dated 2025) are described below.

The test system of this test is Bacillus megaterium. Kind of test: Phosphate solubilization assay with Bacillus megaterium (liquid NBRIP, malachite green). It is filed as cell-based. The following applies: 25 ug/mL (solvent 50% acetone), NBRIP, 72 h. On the procedure:
In some aspects, a compound disclosed herein, e.g., AB09, stimulates bacterial phosphate solubilization activity. […] Cultures of B. megaterium were grown in media containing only insoluble phosphorus with and without a compound such as AB09. At the start of the experiment, there was no detectable difference of orthophosphate levels in the growth media alone and media supplemented with B. megaterium and/or AB09. Orthophosphate was measured after 72 hours of bacterial growth. Specifically, A 5 mL culture of B. megaterium was seeded from a single colony into Nutrient Broth (NB) and grown overnight in a 30° C. shaker. The cell pellet was collected by centrifugation, washed twice and resuspended in water. The concentration of B. megaterium was measured using a Nanodrop OD600 reading. B. megaterium was inoculated into liquid NBRIP media, which contains insoluble tricalcium phosphate as its sole phosphorus source. The final concentration of B. megaterium in the NBRIP media was OD600=0.02 ([…]). NBRIP media was supplemented with ML in a 1% DMSO solution to a final concentration of 100 ug/ML or 1% DMSO (both were filter sterilized through a 0.2 uM filter). Cell counts at the start of the experiment (0 hours) and at 72 hours post inoculation were measured using dilution plating. At the experiment start and after 72 hours of growth, 1 mL of culture was collected from the culture tubes. The supernatant was collected by centrifugation (5 min at 13,000 rpm). The cleared supernatant was diluted […] in molecular grade water and used for orthophosphate analysis. The remaining 4 mL of supernatant were collected by centrifugation for pH readings. Orthophosphate was measured using the malachite-green phosphate method (BioAssay Systems Malachite Green Phosphate Assay Kit Catalog No: POMG-25H). Briefly, the sample is mixed with a solution of Malachite Green and molybdate, which forms a green complex with free orthophosphate from the sample. Data are quantified on a plate reader at 620 nm. Unknown samples were run with a standard curve of known concentrations of orthophosphate. […] Phosphate solubilization in NBRIP culture media is shown at experiment start (0 h) and after 72 hours of shaking at 30° C. The left axis corresponds to box plots and whisker plots of the concentration of solubilized phosphate in the bacterial supernatant. The right axis corresponds to the pH of the supernatant. n=7 culture tubes for each B. megaterium with and without ML, and n=3 culture tubes for no bacteria with and without AB09. The malachite green phosphate assay was performed in triplicate. […] In some instances, disclosed herein are experimental culture tubes of B. megaterium growing in NBRIP without ML (AB09; leftmost two tubes) and with 100 ug/mL ML (right three tubes).
A strain of Bacillus megaterium (B. megaterium) was isolated from Iowa field soil and confirmed its ability to solubilize phosphorus by observing a cleared zone (or halo) around B. megaterium colonies when grown on solid media (NBRIP+Agar) containing only in insoluble form of phosphorus, Ca3(PO4)2. Cultures of B. megaterium were then grown in liquid NBRIP (containing only insoluble Ca3(PO4)2) with and without AB09. The growth media supernatant was analyzed for orthophosphate at the start of the experiment (0 h) and after 72 hours of growth by the malachite green quantification method.
FIG. 1A illustrates phosphate solubilization in NBRIP culture media at experiment start (0 h) and after 72 hours of shaking at 30° C. The left axis corresponds to box plots and whisker plots of the concentration of available phosphate (orthophosphate) in the bacterial supernatant. […] The malachite green phosphate assay was performed in triplicate. FIG. 1B illustrates an example of experimental culture tubes of B. megaterium growing in NBRIP without AB09 (leftmost two tubes) and with 100 ug/mL AB09 (right three tubes). […]
As to `CC1=C(C)C(Oc2c(C)occc2=O)OC1=O` (stereo not drawn) [SA-002], the “phosphate solubilization effect compared to the original AB09 molecule” value is “enhanced phosphate solubilization effect”.

Take `CCc1occc(=O)c1OC1C=C(C)C(=O)O1` (stereo not drawn) [SA-005]: the “phosphate solubilization effect compared to the original AB09 molecule” value is “did not differ from AB09”. The value for `CC1=CC(Oc2cc(C)oc(=O)c2)OC1=O` (stereo not drawn) [SA-004] was “enhanced phosphate solubilization effect”.
